According to ChEMBL document CHEMBL4177521, “Therapeutic Potential of Fatty Acid Amide Hydrolase, Monoacylglycerol Lipase, and N-Acylethanolamine Acid Amidase Inhibitors” (J Med Chem, 2017):
Each block holds one molecule with its values, some of them ahead of it.

What was measured:
[1] = Half life in rat plasma; type: ADME, cell-free
[2] = Half life in CD1 mouse plasma at 3 mg/kg, iv; type: ADME, organism-based
[3] = Half life in mouse plasma; type: ADME, cell-free
[4] = Cmax in CD1 mouse plasma at 3 mg/kg, iv; type: ADME, organism-based; parameters: dose 3 mg/kg, route intravenous; settings: in vivo
[5] = Half life in mouse liver microsomes; type: ADME, microsome
[6] = Half life in rat liver microsomes; type: ADME, microsome
[7] = target: T1, Fatty-acid amide hydrolase 1 (Mus musculus, UniProt O08914); assay: Inhibition of CD1 mouse FAAH
T1 sequence (O08914 whole entry): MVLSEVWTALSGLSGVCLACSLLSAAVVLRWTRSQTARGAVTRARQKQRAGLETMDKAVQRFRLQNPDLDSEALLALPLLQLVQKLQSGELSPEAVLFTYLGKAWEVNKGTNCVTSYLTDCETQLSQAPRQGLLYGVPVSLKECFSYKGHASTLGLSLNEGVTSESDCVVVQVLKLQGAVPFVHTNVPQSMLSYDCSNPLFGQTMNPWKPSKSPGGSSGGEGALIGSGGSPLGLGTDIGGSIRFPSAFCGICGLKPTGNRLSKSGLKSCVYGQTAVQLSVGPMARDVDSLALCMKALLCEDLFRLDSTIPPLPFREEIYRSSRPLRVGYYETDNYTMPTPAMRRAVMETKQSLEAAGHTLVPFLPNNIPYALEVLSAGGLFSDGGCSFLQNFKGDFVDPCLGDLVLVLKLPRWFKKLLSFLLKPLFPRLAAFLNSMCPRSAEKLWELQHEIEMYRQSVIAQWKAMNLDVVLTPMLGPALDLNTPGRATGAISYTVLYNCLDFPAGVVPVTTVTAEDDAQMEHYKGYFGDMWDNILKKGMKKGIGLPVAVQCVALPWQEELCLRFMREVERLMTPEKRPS

[8] = target: T2, Fatty-acid amide hydrolase 1 (Homo sapiens, UniProt O00519); assay: Inhibition of FAAH (unknown origin)
T2 sequence (O00519 whole entry): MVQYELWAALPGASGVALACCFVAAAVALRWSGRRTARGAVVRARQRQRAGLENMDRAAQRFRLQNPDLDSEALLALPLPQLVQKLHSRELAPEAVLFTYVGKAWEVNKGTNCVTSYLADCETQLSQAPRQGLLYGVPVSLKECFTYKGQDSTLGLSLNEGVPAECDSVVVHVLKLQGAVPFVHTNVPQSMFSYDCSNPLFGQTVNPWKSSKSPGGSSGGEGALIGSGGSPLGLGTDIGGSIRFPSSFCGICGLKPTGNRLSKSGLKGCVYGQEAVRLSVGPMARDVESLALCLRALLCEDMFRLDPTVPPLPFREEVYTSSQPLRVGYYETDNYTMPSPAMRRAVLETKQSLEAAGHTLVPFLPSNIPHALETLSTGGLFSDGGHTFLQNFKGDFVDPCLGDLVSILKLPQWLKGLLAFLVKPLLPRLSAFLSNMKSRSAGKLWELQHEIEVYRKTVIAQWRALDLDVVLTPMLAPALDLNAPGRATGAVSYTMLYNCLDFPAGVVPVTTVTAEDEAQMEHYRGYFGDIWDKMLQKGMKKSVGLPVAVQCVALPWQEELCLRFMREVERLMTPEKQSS

[9] = target: T3, N-acylethanolamine-hydrolyzing acid amidase (Homo sapiens, UniProt Q02083); assay: Inhibition of NAAA (unknown origin)
T3 sequence (Q02083 whole entry): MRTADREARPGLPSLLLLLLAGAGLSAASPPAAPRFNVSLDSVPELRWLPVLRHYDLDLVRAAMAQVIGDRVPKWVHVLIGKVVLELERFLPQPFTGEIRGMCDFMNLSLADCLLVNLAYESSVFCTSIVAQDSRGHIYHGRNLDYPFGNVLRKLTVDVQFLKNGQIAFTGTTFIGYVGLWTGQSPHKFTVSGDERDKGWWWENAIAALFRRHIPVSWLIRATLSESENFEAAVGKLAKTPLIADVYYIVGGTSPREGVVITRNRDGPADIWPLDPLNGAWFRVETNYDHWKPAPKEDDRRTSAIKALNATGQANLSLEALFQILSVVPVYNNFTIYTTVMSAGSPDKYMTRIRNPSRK

[10] = target: T4, Fatty-acid amide hydrolase 1 (Rattus norvegicus, UniProt P97612); assay: Inhibition of Sprague-Dawley rat brain FAAH using [14C]anandamide as substrate by liquid scintillation counting method
T4 sequence (P97612 whole entry): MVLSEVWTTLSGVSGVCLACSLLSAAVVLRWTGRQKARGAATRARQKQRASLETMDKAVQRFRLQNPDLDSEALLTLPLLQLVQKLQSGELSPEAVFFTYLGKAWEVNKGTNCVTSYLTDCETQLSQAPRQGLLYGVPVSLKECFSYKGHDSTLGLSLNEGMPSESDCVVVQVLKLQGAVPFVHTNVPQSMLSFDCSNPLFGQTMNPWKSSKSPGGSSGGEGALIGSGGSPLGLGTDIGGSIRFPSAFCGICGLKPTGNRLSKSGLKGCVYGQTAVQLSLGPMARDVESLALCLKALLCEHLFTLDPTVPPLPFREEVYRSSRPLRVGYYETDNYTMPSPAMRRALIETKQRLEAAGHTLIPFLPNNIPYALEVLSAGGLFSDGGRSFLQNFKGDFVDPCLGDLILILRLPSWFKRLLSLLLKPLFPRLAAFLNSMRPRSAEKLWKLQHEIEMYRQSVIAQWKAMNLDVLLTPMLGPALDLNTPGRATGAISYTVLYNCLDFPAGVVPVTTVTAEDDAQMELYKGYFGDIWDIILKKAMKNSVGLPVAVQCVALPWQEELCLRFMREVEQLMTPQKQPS

[11] = target: T5, N-acylethanolamine-hydrolyzing acid amidase (Rattus norvegicus, UniProt Q5KTC7); assay: Inhibition of rat NAAA expressed in HEK293 cells by LC/MS analysis; type: cell-based
T5 sequence (Q5KTC7 whole entry): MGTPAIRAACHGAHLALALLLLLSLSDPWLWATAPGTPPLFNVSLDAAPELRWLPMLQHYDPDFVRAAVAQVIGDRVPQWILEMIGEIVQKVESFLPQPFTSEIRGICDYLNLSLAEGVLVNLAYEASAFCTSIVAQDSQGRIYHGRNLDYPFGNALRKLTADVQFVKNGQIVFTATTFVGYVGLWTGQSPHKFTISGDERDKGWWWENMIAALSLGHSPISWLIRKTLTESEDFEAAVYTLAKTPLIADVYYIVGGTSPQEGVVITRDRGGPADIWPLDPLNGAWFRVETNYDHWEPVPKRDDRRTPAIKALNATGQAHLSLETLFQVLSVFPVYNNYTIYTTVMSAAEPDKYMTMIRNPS

[12] = target: T4, Fatty-acid amide hydrolase 1; assay: Inhibition of rat FAAH expressed in HEK293 cells by LC/MS analysis; type: cell-based
[13] = Half life in monkey at 10 mg/kg, po or 1 mg/kg, iv; type: ADME, organism-based, Macaca mulatta; settings: rhesus monkey, in vivo
Cannabinoid receptor 1 = Cannabinoid receptor 1 (Homo sapiens, UniProt P21554); assay: Antagonist activity at CB1R (unknown origin); type: functional
Sequence of Cannabinoid receptor 1 (P21554 whole entry): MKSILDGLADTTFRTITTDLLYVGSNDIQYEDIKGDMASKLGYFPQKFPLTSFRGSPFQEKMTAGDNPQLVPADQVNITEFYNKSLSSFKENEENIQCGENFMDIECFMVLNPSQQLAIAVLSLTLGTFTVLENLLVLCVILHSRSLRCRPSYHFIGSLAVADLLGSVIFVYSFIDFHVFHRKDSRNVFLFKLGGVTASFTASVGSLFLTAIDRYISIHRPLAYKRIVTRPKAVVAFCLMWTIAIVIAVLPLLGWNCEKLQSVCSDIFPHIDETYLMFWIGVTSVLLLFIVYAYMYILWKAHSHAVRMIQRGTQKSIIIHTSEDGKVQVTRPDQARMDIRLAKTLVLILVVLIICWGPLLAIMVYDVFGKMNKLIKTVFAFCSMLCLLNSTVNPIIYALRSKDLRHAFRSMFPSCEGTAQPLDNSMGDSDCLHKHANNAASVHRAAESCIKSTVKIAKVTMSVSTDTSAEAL

[14] = Oral bioavailability in monkey at 10 mg/kg; type: ADME, organism-based, Macaca mulatta; settings: rhesus monkey, in vivo
[15] = target: T1, Fatty-acid amide hydrolase 1; assay: Inhibition of mouse brain membrane FAAH preincubated for 10 mins followed by 14C-oleamide substrate addition measured up to 60 mins by TLC analysis
Monoglyceride lipase = target: T6, Monoglyceride lipase (Homo sapiens, UniProt Q99685); assay: Inhibition of human MAGL
T6 sequence (Q99685 whole entry): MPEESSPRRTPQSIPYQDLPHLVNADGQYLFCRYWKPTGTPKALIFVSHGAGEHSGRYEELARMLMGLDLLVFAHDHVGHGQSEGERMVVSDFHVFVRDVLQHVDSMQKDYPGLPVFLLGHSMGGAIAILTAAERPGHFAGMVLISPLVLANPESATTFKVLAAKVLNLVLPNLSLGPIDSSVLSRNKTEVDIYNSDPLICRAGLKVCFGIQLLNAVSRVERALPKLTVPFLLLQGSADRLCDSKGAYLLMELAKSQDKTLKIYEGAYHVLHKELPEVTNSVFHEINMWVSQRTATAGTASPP

Structure (SMILES): S=C=NCCCCCCCCCCc1ccccc1
IC50 [8]: > 100000 nM | IC50 [9]: 30 nM

Structure (SMILES): CCCCCCCCCCCCCCCCS(=O)(=O)F [HEXADECANESULFONYL FLUORIDE]
IC50 [10]: 13 nM

Structure (SMILES): COc1cc(NC(=O)C(=O)c2c(C)n(Cc3ccc(Cl)cc3)c3ccc(C)cc23)ccn1
half-life [13]: 1020 to 1200 min | IC50 [8]: 10 nM | IC50 (Cannabinoid receptor 1): > 1000 nM | bioavailability [14]: 14 to 21%

Structure (SMILES): CCCCCCCCCCCCCCCN=C=S
IC50 (Monoglyceride lipase): > 10000 nM | IC50 (Cannabinoid receptor 1): > 10000 nM

Now from value to molecule:

t1/2 [1]: 12 min | half-life [2]: 15 min | t1/2 [3]: 41 min | Cmax [4]: 1610 ng/mL | half-life [5]: < 5 min | half-life [6]: < 5 min
Structure (SMILES): O=C(N[C@H]1CNC1=O)OCCCCC1CCCCC1

IC50 [7]: 9 nM
Structure (SMILES): C=C(OC(=O)N1CCCCC1)c1ccc(-c2ccccc2)cc1

IC50 [11]: 2120 nM | IC50 [12]: > 100000 nM
Structure (SMILES): O=C(CCc1ccc(-c2ccccc2)cc1)N1CCCC1

IC50 [15]: 12.4 nM
Structure (SMILES): CN(C)C(=O)n1nnnc1Cc1ccc(-c2ccccc2)cc1
